Laboratory results as given in patent USRE43879E1, “Use of the dextrogyral enantiomer of milnacipran for the preparation of a drug” (priority 2003, dated 2012).

Experiments:
primary rat hepatocytes [1] = test: Cytotoxicity test (MTT-assay) on primary rat hepatocytes; assay type: cell-based; details: 16 hours
Method: The […] and […] compounds, enantiomers of the racemic molecule […], as well as clomipramine, a reference product, (coded […] in the study) were assessed in the present study. The two enantiomers, […] and […], were first assessed in a preliminary cytotoxicity text (MTT-assay) on primary rat hepatocytes, in order to select the three concentrations to be used in the final test. The cells used in the study (preliminary MTT-assay of cytotoxicity and the main test) are cryopreserved hepatocytes from Sprague-Dawley rats in primary culture (batches Hep184005 and Hep184006-Biopredic), cultured under standard conditions. […] Formazan is solubilised in an organic solvent and the solution obtained can be measured by spectrophotometry. The absorbance measured is proportional to the number of surviving cells. The cells are put into contact with the product to be tested at […] (0-1-10-25-50 and 100 μM) for 16 hours. After this period of exposure, an MTT solution (0.5 mg/ml in the incubation medium of the primary hepatocytes) is added for 3 hours. After solubilisation of the formazan crystals, the multi-well plates are read with a spectrophotometer at 500 nm in order to determine the percentage of cell viability. These assays were performed in triplicate on primary rat hepatocytes exposed for 16 hours.

primary rat hepatocytes [2] = test: Safe-Hit genomic test of predictive toxicology (Toxicity Index) on primary rat hepatocytes; assay type: cell-based; details: 16 h
Excerpt: After treatment of the primary rat hepatocytes in culture, the RNA was extracted in order to generate labelled complementary-DNA probes which were then hybridised on a membrane containing 682 alternatively-spliced fragments specific to cell stress. A Toxicity Index was obtained for each of the products by comparing the hybridisation profile of the treated cells with that of the untreated cells.
Safe-Hit allows molecules within a chemical series to be ranked according to a Toxic Index, determined after the following basic steps (systematically performed in duplicate for each product): • treatment of the cells lines with the various products at three different concentrations, deduced from a preliminary cytotoxicology test (MTT-assay): a reference concentration corresponding to 80% cell viability, a concentration 10-fold higher—when possible—and a concentration 10-fold lower, • preparation of total RNA and of the corresponding radio-labelled cDNA probes, • hybridisation of the cDNA probes: the Safe-Hit macroarray contains 682 independent clones, corresponding to alterations in gene splicing induced by overexpression of WTp53 (p53 is the most ubiquitous “mediator” of cell stress, chosen for the development of this methodology), • acquisition and determination of the Toxicity Index. 4.1.2. Cells
The cells used in the study (preliminary MTT-assay of cytotoxicity and the main test) are cryopreserved hepatocytes from Sprague-Dawley rats in primary culture (batches Hep184005 and Hep184006-Biopredic), cultured under standard conditions.
The cells are seeded and cultured for 16 hours with each product, at the three concentrations chosen on the basis of the preliminary MTT-assay; two controls (untreated cells in solvent alone) are added to the series.
The results of the two Safe-Hit analyses are then compared and combined to assess the potential toxicity of the various compounds tested. Two parameters that can be modified by the user are involved in the calculation of the Toxicity Index: • Background Threshold (BT) smoothes out weak signals, close to background noise and not attributable to significant gene expression. […] The value of this parameter is usually 2 or less than 2 in order to obtain relevant results. […]
Toxicity Indices (TI) were determined as described above. […] Two separate analyses were performed using two levels of differentiation (Induction Factor-IF) in relation to the untreated controls: • a factor of at least 1.7 in relation to the untreated controls. This factor of 1.7 times represents the weakest value that allows an index not to be obtained in relation to the two untreated controls. • a factor of at least 2 in relation to the untreated controls. This factor of 2 times allows the most robust signals to be taken into account. 4.3.1. Induction Factor of 1.7 in Relation to Untreated Control (Table 7)

CN(C)CCCN1c2ccccc2CCc2ccc(Cl)cc21 [C218, clomipramine]
Toxicity in MTT-assay (primary rat hepatocytes [1]; 25 μM): no toxicity was observed | Cell viability in MTT-assay (primary rat hepatocytes [1]; 50 μM): greater than 80% | Cytotoxicity / cell viability in MTT-assay (primary rat hepatocytes [1]; 100 μM): no cell viability was observed | Clone A09 (H. sapiens mitochondrion, 12S), regulation factor vs untreated control (primary rat hepatocytes [2]; 1 μM): 2.90 | Clone AA11 (H. sapiens Repeat sequence AluJb fragment inserted into a cDNA coding for an unknown protein), regulation factor vs untreated control (primary rat hepatocytes [2]; 1 μM): 0.38 | Clone AC13 (H. sapiens 7S RNA L gene), regulation factor vs untreated control (primary rat hepatocytes [2]; 1 μM): 0.28 | Clone C01 (H. sapiens mitochondrion, 16S), regulation factor vs untreated control (primary rat hepatocytes [2]; 1 μM): 1.93 | Clone T08 (H. sapiens mRNA for KIAA1185 protein), regulation factor vs untreated control (primary rat hepatocytes [2]; 1 μM): 0.35 | Clone U04 (H. sapiens translation initiation factor elF-2alpha mRNA), regulation factor vs untreated control (primary rat hepatocytes [2]; 1 μM): 0.48 | Clone X02 (unk), regulation factor vs untreated control (primary rat hepatocytes [2]; 1 μM): 0.36 | Clone X06 (H. sapiens Genomic sequence from 9q34), regulation factor vs untreated control (primary rat hepatocytes [2]; 1 μM): 0.23 | Clone Z13 (unk), regulation factor vs untreated control (primary rat hepatocytes [2]; 1 μM): 0.34 | Clone A09 (H. sapiens mitochondrion, 12S), regulation factor vs untreated control (primary rat hepatocytes [2]; 10 μM): 2.23 | Clone AA11 (H. sapiens Repeat sequence AluJb fragment inserted into a cDNA coding for an unknown protein), regulation factor vs untreated control (primary rat hepatocytes [2]; 10 μM): 0.27 | Clone AC13 (H. sapiens 7S RNA L gene), regulation factor vs untreated control (primary rat hepatocytes [2]; 10 μM): 0.16 | Clone B20 (H. sapiens chromosome 19, BAC CIT-B-191n6), regulation factor vs untreated control (primary rat hepatocytes [2]; 10 μM): 0.14 | Clone B22 (H. sapiens Genomic sequence from 17), regulation factor vs untreated control (primary rat hepatocytes [2]; 10 μM): 0.17 | Clone C01 (H. sapiens mitochondrion, 16S), regulation factor vs untreated control (primary rat hepatocytes [2]; 10 μM): 1.82 | Clone E05 (H. sapiens DNA sequence from clone 740A11 on chromosome Xq22.2-23, part of COL4A5 gene), regulation factor vs untreated control (primary rat hepatocytes [2]; 10 μM): 0.22 | Clone E21 (H. sapiens ribosomal protein S14 gene), regulation factor vs untreated control (primary rat hepatocytes [2]; 10 μM): 0.56 | Clone M12 (H. sapiens mRNA; cDNA DKFZp564C1563), regulation factor vs untreated control (primary rat hepatocytes [2]; 10 μM): 0.16 | Clone T08 (H. sapiens mRNA for KIAA1185 protein), regulation factor vs untreated control (primary rat hepatocytes [2]; 10 μM): 0.14 | Clone U04 (H. sapiens translation initiation factor elF-2alpha mRNA), regulation factor vs untreated control (primary rat hepatocytes [2]; 10 μM): 0.22 | Clone X02 (unk), regulation factor vs untreated control (primary rat hepatocytes [2]; 10 μM): 0.24 | Clone X05 (H. sapiens microsomal epoxide hydrolase (EPHX) gene), regulation factor vs untreated control (primary rat hepatocytes [2]; 10 μM): 0.15 | Clone X06 (H. sapiens Genomic sequence from 9q34), regulation factor vs untreated control (primary rat hepatocytes [2]; 10 μM): 0.15 | Clone Z13 (unk), regulation factor vs untreated control (primary rat hepatocytes [2]; 10 μM): 0.29 | Clone A09 (H. sapiens mitochondrion, 12S), regulation factor vs untreated control (primary rat hepatocytes [2]; 100 μM): 2.14 | Clone AA11 (H. sapiens Repeat sequence AluJb fragment inserted into a cDNA coding for an unknown protein), regulation factor vs untreated control (primary rat hepatocytes [2]; 100 μM): 0.31 | Clone AA13 (H. sapiens 18S rRNA gene), regulation factor vs untreated control (primary rat hepatocytes [2]; 100 μM): 1.79 | Clone AC13 (H. sapiens 7S RNA L gene), regulation factor vs untreated control (primary rat hepatocytes [2]; 100 μM): 0.28 | Clone B20 (H. sapiens chromosome 19, BAC CIT-B-191n6), regulation factor vs untreated control (primary rat hepatocytes [2]; 100 μM): 0.27 | Clone B22 (H. sapiens Genomic sequence from 17), regulation factor vs untreated control (primary rat hepatocytes [2]; 100 μM): 0.32 | Clone C01 (H. sapiens mitochondrion, 16S), regulation factor vs untreated control (primary rat hepatocytes [2]; 100 μM): 1.91 | Clone E01 (H. sapiens mRNA for lipocortin II), regulation factor vs untreated control (primary rat hepatocytes [2]; 100 μM): 1.73 | Clone E05 (H. sapiens DNA sequence from clone 740A11 on chromosome Xq22.2-23, part of COL4A5 gene), regulation factor vs untreated control (primary rat hepatocytes [2]; 100 μM): 0.35 | Clone E19 (H. sapiens mitochondrion, cytochrome c oxidase subunit 1), regulation factor vs untreated control (primary rat hepatocytes [2]; 100 μM): 1.72 | Clone E21 (H. sapiens ribosomal protein S14 gene), regulation factor vs untreated control (primary rat hepatocytes [2]; 100 μM): 0.58 | Clone F24 (H. sapiens LIM homeobox protein cofactor (CLIM-1) mRNA), regulation factor vs untreated control (primary rat hepatocytes [2]; 100 μM): 0.52 | Clone G01 (H. sapiens estrogen receptor-related protein (variant ER from breast cancer) mRNA), regulation factor vs untreated control (primary rat hepatocytes [2]; 100 μM): 2.04 | Clone G05 (H. sapiens mitochondrion, cytochrome c oxidase subunit 1), regulation factor vs untreated control (primary rat hepatocytes [2]; 100 μM): 2.02 | Clone G09 (H. sapiens mitochondrion, cytochrome b), regulation factor vs untreated control (primary rat hepatocytes [2]; 100 μM): 1.76 | Clone I18 (H. sapiens 18S rRNA gene), regulation factor vs untreated control (primary rat hepatocytes [2]; 100 μM): 1.88 | Clone L23 (H. sapiens cDNA NIH_MGC_16 clone IMAGE: 3350241 5′, mRNA sequence), regulation factor vs untreated control (primary rat hepatocytes [2]; 100 μM): 1.75 | Clone M07 (H. sapiens mitochondrion, cytochrome c oxidase subunit 1), regulation factor vs untreated control (primary rat hepatocytes [2]; 100 μM): 1.75 | Clone M12 (H. sapiens mRNA; cDNA DKFZp564C1563), regulation factor vs untreated control (primary rat hepatocytes [2]; 100 μM): 0.39 | Clone Q11 (unk), regulation factor vs untreated control (primary rat hepatocytes [2]; 100 μM): 1.92 | Clone S01 (Mus muculus TCR beta locus), regulation factor vs untreated control (primary rat hepatocytes [2]; 100 μM): 2.98 | Clone T08 (H. sapiens mRNA for KIAA1185 protein), regulation factor vs untreated control (primary rat hepatocytes [2]; 100 μM): 0.22 | Clone U04 (H. sapiens translation initiation factor elF-2alpha mRNA), regulation factor vs untreated control (primary rat hepatocytes [2]; 100 μM): 0.37 | Clone X02 (unk), regulation factor vs untreated control (primary rat hepatocytes [2]; 100 μM): 0.31 | Clone X05 (H. sapiens microsomal epoxide hydrolase (EPHX) gene), regulation factor vs untreated control (primary rat hepatocytes [2]; 100 μM): 0.24 | Clone X06 (H. sapiens Genomic sequence from 9q34), regulation factor vs untreated control (primary rat hepatocytes [2]; 100 μM): 0.23 | Clone Z13 (unk), regulation factor vs untreated control (primary rat hepatocytes [2]; 100 μM): 0.27 | Clone Z20 (Homo sapiens cDNA wc44h09, similar to RAS_RELATED PROTEIN RAB-24, mRNA sequence), regulation factor vs untreated control (primary rat hepatocytes [2]; 100 μM): 0.57 | Number of down-regulated clones (Down) (primary rat hepatocytes [2]; Induction Factor 1.7, 1 μM): 7 | Number of up-regulated clones (Up) (primary rat hepatocytes [2]; Induction Factor 1.7, 1 μM): 2 | Toxicity Index (TI, number of signatures) (primary rat hepatocytes [2]; Induction Factor 1.7, 1 μM): 9 | Number of down-regulated clones (Down) (primary rat hepatocytes [2]; Induction Factor 1.7, 10 μM): 13 | Number of up-regulated clones (Up) (primary rat hepatocytes [2]; Induction Factor 1.7, 10 μM): 2 | Toxicity Index (TI, number of signatures) (primary rat hepatocytes [2]; Induction Factor 1.7, 10 μM): 15 | Toxicity Index (TI, number of signatures) (primary rat hepatocytes [2]; Induction Factor 1.7, 50 μM): 28 | Number of down-regulated clones (Down) (primary rat hepatocytes [2]; Induction Factor 1.7, 100 μM): 15 | Number of up-regulated clones (Up) (primary rat hepatocytes [2]; Induction Factor 1.7, 100 μM): 13 | Toxicity Index (TI, number of signatures) (primary rat hepatocytes [2]; Induction Factor 1.7, 100 μM): 28 | Number of down-regulated clones (Down) (primary rat hepatocytes [2]; Induction Factor 2, 1 μM): 7 | Number of up-regulated clones (Up) (primary rat hepatocytes [2]; Induction Factor 2, 1 μM): 1 | Toxicity Index (TI, number of signatures) (primary rat hepatocytes [2]; Induction Factor 2, 1 μM): 8 | Number of down-regulated clones (Down) (primary rat hepatocytes [2]; Induction Factor 2, 10 μM): 12 | Number of up-regulated clones (Up) (primary rat hepatocytes [2]; Induction Factor 2, 10 μM): 1 | Toxicity Index (TI, number of signatures) (primary rat hepatocytes [2]; Induction Factor 2, 10 μM): 13 | Toxicity Index (TI, number of signatures) (primary rat hepatocytes [2]; Induction Factor 2, 50 μM): 16 | Number of down-regulated clones (Down) (primary rat hepatocytes [2]; Induction Factor 2, 100 μM): 12 | Number of up-regulated clones (Up) (primary rat hepatocytes [2]; Induction Factor 2, 100 μM): 4 | Toxicity Index (TI, number of signatures) (primary rat hepatocytes [2]; Induction Factor 2, 100 μM): 16
